Measured values published in US7276536B2, “Method for increasing the bioavailability of the active form of S-[2-([[1-(2-ethylbutyl)cyclohexyl]carbonyl]amino) phenyl] 2-methylpropanethioate” (Japan Tobacco Inc., priority 2003, dated 2007).

Columns and labels:
[1] = target: T1, cholesteryl ester transfer protein (CETP) (Homo sapiens, UniProt P11597); assay: CETP activity change from baseline after 900 mg oral Compound I, fed vs fasted (Example 2); type: in vivo, human (Caucasian male patients); settings: mean
T1 construct: from tissue; host or cells: samples from dosed male patients (CETP is described as a plasma protein)
T1 sequence (P11597 18-493): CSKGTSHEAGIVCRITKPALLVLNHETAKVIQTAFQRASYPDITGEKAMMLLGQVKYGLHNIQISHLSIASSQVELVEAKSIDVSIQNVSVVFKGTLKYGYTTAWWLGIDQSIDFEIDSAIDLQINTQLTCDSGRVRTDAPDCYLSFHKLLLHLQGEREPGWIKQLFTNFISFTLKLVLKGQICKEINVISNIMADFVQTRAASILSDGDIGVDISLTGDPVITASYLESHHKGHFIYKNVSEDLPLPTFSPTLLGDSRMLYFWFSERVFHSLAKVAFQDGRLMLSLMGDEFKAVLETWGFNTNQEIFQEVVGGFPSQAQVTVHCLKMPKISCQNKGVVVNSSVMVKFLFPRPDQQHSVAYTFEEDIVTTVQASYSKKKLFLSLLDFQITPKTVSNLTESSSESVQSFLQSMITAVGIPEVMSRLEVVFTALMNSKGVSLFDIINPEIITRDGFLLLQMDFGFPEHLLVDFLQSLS
Experimental: Administration, dosing, and sampling schedules were substantially similar to those described in Example 1.
The procedure for determining CETP activity was substantially similar to the procedures described in Tollefson et al., Methods Enzymol., 129, 797-816 (1986), and Kato et al., J. Biol. Chem., 264, 4082-4087 (1989).
CETP activity and changes from baseline (pre-dose) were measured, and the resulting data is summarized in Table 2 as percentage change from baseline. The mean changes from baseline (pre-dose) in CETP activity over time are set out in the plot of FIG. 3.

[2] = Food-effect pharmacokinetic study, 600 mg oral Compound I, fed vs fasted (Example 4); type: in vivo, human (Japanese male volunteers)
Experimental: Administration, dosing, and sampling schedules were commensurate with those described in Example 1. […] Patients were administered two tablets of 300 mg each. The tablets were prepared as described in Example 1.

Structure (SMILES): CCC(CC)CC1(C(=O)Nc2ccccc2SC(=O)C(C)C)CCCCC1 [Compound I, S-[2-([[1-(2-ethylbutyl)cyclohexyl]carbonyl]amino)phenyl]2-methylpropanethioate]
- Percent change from pre-dose in CETP activity ([1]; Fasted, 1 h): 1%
- Percent change from pre-dose in CETP activity ([1]; Fasted, 2 h): 2%
- Percent change from pre-dose in CETP activity ([1]; Fasted, 4 h): −4%
- Percent change from pre-dose in CETP activity ([1]; Fasted, 6 h): −10%
- Percent change from pre-dose in CETP activity ([1]; Fasted, 8 h): −15%
- Percent change from pre-dose in CETP activity ([1]; Fasted, 24 h): −10%
- Percent change from pre-dose in CETP activity ([1]; Fed, 1 h): −1%
- Percent change from pre-dose in CETP activity ([1]; Fed, 2 h): −16%
- Percent change from pre-dose in CETP activity ([1]; Fed, 4 h): −44%
- Percent change from pre-dose in CETP activity ([1]; Fed, 6 h): −59%
- Percent change from pre-dose in CETP activity ([1]; Fed, 8 h): −58%
- Percent change from pre-dose in CETP activity ([1]; Fed, 24 h): −34%
- AUC0-∞ times higher with food as compared to without food [2]: ~2 times
